Measurements from paper PMC7735731, “Application of Magnetic Core–Shell Imprinted Nanoconjugates for the Analysis of Hordenine in Human Plasma-Preliminary Data on Pharmacokinetic Study after Oral Administration” (Journal of Agricultural and Food Chemistry, 2020).
Converted amounts (≈) assume the structure as drawn. “And” between values parts separate entries of the source, which are not always exact repeats. Equal values may be shown once.

Legend:
[1] = set-up: method as in PMID 25880244; conditions: rats, cited from earlier work
[2] = Stability of the analyte in the biological matrix (human plasma) and the extract; format: in vitro ADME; conditions: for stability in extract in the autosampler: 48 h, 4 °C; for stability after short-term storage at room temperature / stability after freeze–thaw cycles: human plasma; for stability after short-term storage at room temperature: 4 h, 21 ± 2 °C; for stability after freeze–thaw cycles: three cycles at −20 °C storage, 25 °C thawing
Description: Selectivity was evaluated using six blank plasma samples, which were evaluated for interference from the matrix components in the determination of hordenine. The accuracy and precision of the method were determined within runs (n = 5) and between runs (n = 15, five replicate samples on three separate runs) using quality control (QC) samples (0.1, 25, and 40 μg/L). Accuracy was expressed as percent relative error of the spiked nominal value, whereas precision was expressed as relative standard deviation (RSD). The linearity range was set between 0.05 and 50 μg/L. Eight point calibration lines (n = 3) were constructed by plotting peak area ratios of each targeted analyte to an area of IS versus the nominal concentration of the analyte. LLOQ was selected to give the signal at least five times higher than the signal of blank samples and satisfactory results of accuracy and precision. LLOQ, QCs, and calibration standards were prepared on blank plasma. The matrix effect was evaluated by analyzing low and high QCs using plasma from six different lots and included hemolyzed and hyperlipidemic plasma samples. Matrix factor (MF) was determined by calculating the ratio of the peak area in the presence of matrix (blank plasma spiked with the analyte post extraction) to the peak area in the absence of matrix (pure solution of the analyte). Additionally, the coefficient of variation (CV) of the IS-normalized MF (expressed as the MF of analyte divided by the MF of IS) was presented. All stability studies were performed at low and high QCs. The autosampler stability was determined after 48 h of extract storage in an autosampler (4 ± 0.5 °C). The freeze and thaw stabilities were determined in a process of three freeze–thaw cycles at −20 ± 2 °C storage temperature and 25 ± 0.5 °C thawing temperature, at least 12 h after freezing. The short-term stability was determined after 4 h of storage at room temperature, 21 ± 2 °C. Carryover was studied by injecting blank plasma sample after calibration standard at 40 μg/L

[3] = cited from earlier work
dopamine D2 receptor = target: dopamine D2 receptor; set-up: method as in PMID 28281694; conditions: cited from earlier work
[4] = four volunteers, 1 L of beer with hordenine content 6.30 ± 0.19 mg/L; cited from earlier work
[5] = Pharmacokinetic profile of hordenine in plasma after alcohol free beer consumption by one volunteer; format: in vivo, human
Description: It is known that hordenine levels in plasma after beer consumption are low.[10] Thus, to verify the newly proposed analytical method as well as to reveal its applicability, the evaluation of hordenine pharmacokinetics profiles after beer consumption was also investigated. The results are presented in Supporting Information Section S2.
Determination of pharmacokinetic profile after beer consumption
In order to reveal the applicability of new analytical method, the comparative studies of hordenine pharmacokinetic after alcohol free beer consumption was performed. Firstly we confirmed the presence of hordenine in the beverage since no data on hordenine content in alcohol free beer exist. Then the volunteer consumed 0.5 L of beer within 5 min. The blood was collected 10 min., 20 min., 30 min., 45 min., 1 h, 2 h, 4 h, and 6 h after the beginning of beer […]
Regarding alcohol free beer the hordenine content was 1.3 mg/L for Karmi Classic, 1.2 mg/L for Żywiec, 2.5 mg/L for Heineken zero, 2.3 mg/L for Lech. Thus, for further experiments Heineken zero was selected. […]
distribution Vz/F 1810 L. We confirmed the results of Sommer et al. (2020) that the Cmax is too low to directly interact with D2 receptors. One of the explanation of the lower Cl/F and Vz/F than obtained for supplement can be higher bioavailability of hordenine form beer than supplements and/or non linear pharmacokinetics. Thus, further study are needed.
Figure A. Mean plasma concentration-time profile of hordenine after beer consumption by one

[6] = Simple allometric scaling of rat t1/2 to human; conditions: from rat t1/2 4.6 ± 1.6 h with t1/2(Human) ∼ 4t1/2(Rat)
Description: However, further studies are required.

[7] = Pharmacokinetic study in healthy volunteers after oral administration of hordenine-rich dietary supplement (plasma, mag-MIP d-SPE, LC-MS/MS); format: in vivo, human
Description: Quantitative analysis was performed using an Agilent 1260 Infinity system (Agilent Technologies, Santa Clara, CA, United States, https://www.agilent.com), equipped with a degasser, an autosampler, and a binary pump coupled to a QTRAP 4000 hybrid triple quadrupole/linear ion trap mass spectrometer (AB Sciex, Framingham, MA, United States, https://sciex.com). The turbo ion spray source was operated in positive mode. The curtain gas, ion source gas 1, ion source gas 2, and collision gas (all high-purity nitrogen) were set at 345, 207, 276 kPa, and “high” instrument units (4.6 × 10^–5 Torr), respectively. The ion spray voltage and source temperature were 5000 V and 600 °C, respectively. The target compounds were analyzed in multiple reaction monitoring mode. The quantitative multiple reaction monitoring transitions, declustering potential (DP) and collision energy (CE) for hordenine and hordenine-d6 were (m/z) 166 > 121 (DP = 61 V, CE = 21 V) and 172 > 121 (DP = 66 V, CE = 19 V), respectively. […] The column was maintained at 40 °C at the flow rate of 0.5 mL/min. The mobile phases consisted of 20 mM aqueous ammonium acetate as eluent A and acetonitrile with 0.2% formic acid as eluent B. The gradient (% B) was as follows: 0 min 10%, 1 min 10%, 3 min 95%, and 5 min 95%. The reequilibration of the column to the initial conditions lasted 1.5 min.
For the optimization of the d-SPE process, a mass of 5 mg of mag-MIP was transferred to an Eppendorf tube together with a volume of 300 μL of untreated plasma sample (or in the optimization process: sample diluted with water or sample pretreated with methanol (1:1, v/v)). A sample of plasma pretreated with methanol was centrifuged (10 000g, 5 min) prior to loading to mag-MIP together with 30 μL of IS (c = 50 μg/L). Next, the tube was put on the vortex to provide contact time with the sorbent for 5 min (in the optimization of loading time, the step lasted 5, 15, 30, or 60 min). Then, the supernatant, separated from the sorbent by an external magnetic field, was discarded and the washing step was carried out by applying water, 300 μL of ultrapure water for 0.5 min on the vortex (or in the optimization process, methanol–water 85:15 v/v). The supernatant was removed in the same manner as described above. Finally, the elution took place by adding 500 μL of 5% ammonium hydroxide in methanol. The elution time was set for 5 min (in the optimization process, the step lasted 5, 15, 30, or 60 min). The elution fraction was separated from the sorbent by the application of an external magnetic field. In each optimized step, the recoveries of hordenine were analyzed. The eluate was evaporated to dryness (40 °C, 5 min), reconstituted in a volume of 70 μL of 20% aqueous methanol, and an aliquot of 10 μL was injected into the LC–MS/MS. Each experiment was performed in triplicate. The recovery was calculated by comparing the mean area response of plasma sample spiked before and after extraction.
Three healthy volunteers (men, aged 25–30 years) were enrolled in this study after obtaining written informed consent. All participants were nonsmokers with body weight no less than 50 kg and body mass index 25.7 ± 3.7 kg/m^2. Their body weights were 80 kg (two volunteers) and 105 kg (one volunteer). Subjects neither consumed alcohol nor received any medication for 2 weeks prior to the start of the study. Hordenine was administered orally in the morning with a dose of 100 mg (in starch capsules) after overnight fasting. Plasma samples of approximately 2 mL were collected (in vials containing di-potassium ethylene diaminetetraacetic acid as an anticoagulant) before and at 20, 30, 45, 60, 75, 90, 120, 180, and 240 min post-dose. After collection, plasma samples were centrifuged at 2000g for 15 min at room temperature and plasma samples were analyzed. […]

[8] = weak base; source not given; cited from earlier work
[9] = human plasma, single oral dose 100 mg hordenine, three healthy volunteers, mean
[10] = male, human, plasma, single oral dose 100 mg hordenine, three healthy volunteers, mean

For `CN(C)CCc1ccc(O)cc1` [hordenine, 4-(2-dimethylaminoethyl)phenol], the “t1/2 (hordenine elimination)” value ([1]; oral administration, dose of 15 mg/kg) is given as 4.6 ± 1.6 h, the bioavailability [1] is given as 66.2% and the “stability in extract in the autosampler” value ([2]; QC1 (0.1 μg/L)) is given as 94%. For the same molecule, the “stability in extract in the autosampler” value ([2]; QC3 (40 μg/L)) was 110%, the “stability after short-term storage at room temperature” value ([2]; QC1 (0.1 μg/L)) was 103% and the “stability after freeze–thaw cycles” value ([2]; QC1 (0.1 μg/L)) was 108%. The “stability after short-term storage at room temperature” value ([2]; QC3 (40 μg/L)) was 107%, the “stability after freeze–thaw cycles” value ([2]; QC3 (40 μg/L)) was 104% and the “blood–brain barrier crossing” value [3] was “can cross the blood–brain barrier”. The EC50 (dopamine D2 receptor) was 0.61 µg/mL (≈ 3.69 µM), the maximum plasma concentrations [4] was 1.98 to 2.85 µg/L and the “apparent oral clearance (Cl/F)” value ([5]; 0.5 L alcohol free beer (hordenine 2.5 mg/L)) was 2320 L/h. The “time to reach Cmax” value ([5]; 0.5 L alcohol free beer, from the beginning of beer consumption) was 25 min, the Cmax ([5]; human, plasma, oral, 1.25 mg, 0.5 L alcohol free beer (Heineken zero, hordenine 2.5 mg/L)) was 0.4 ng/mL and the Vd/F ([5]; human, plasma, oral, 1.25 mg, 0.5 L alcohol free beer (hordenine 2.5 mg/L), read-out: volume of distribution Vz/F) was 1810 L. The “estimated t1/2(Human) by allometric scaling” value [6] was 1.15 ± 0.4 h, the AUCt [7, 9] was 1390 µg·min/L and the “AUCt norm (body weight normalized)” value [7, 9] was 16.5 µg·min/L/kg. The “AUC∞” value [7, 9] was 1440 µg·min/L, the “AUC∞ norm (body weight normalized)” value [7, 9] was 17.1 µg·min/L/kg and the concentration at 1 h ([7]; male, human, in vivo, plasma collected at 1 h after administration of 100 mg of hordenine, read-out: calculated concentration in test plasma) was 8.7 ng/mL. It also gave a Cmax [7, 10] of 16.4 ng/mL, an MRT inf [7, 10] of 1.88 h and an MRT last [7, 10] of 1.7 h. For the same molecule, the Tmax [7, 10] was 1.08 h, the CL/F ([7]; male, human, plasma, single oral dose 100 mg hordenine, three healthy volunteers, mean, read-out: Cl/Fnorm (body weight normalized) (converted)) was 850 mL/min/kg and the Vd/F ([7]; male, human, plasma, single oral dose 100 mg hordenine, three healthy volunteers, mean, read-out: Vz/F (apparent distribution volume)) was 6000 L. The Vd/F ([7]; male, human, plasma, single oral dose 100 mg hordenine, three healthy volunteers, mean, read-out: Vz/Fnorm (body weight normalized)) was 66 L/kg, the half-life ([7]; male, human, plasma, single oral dose 100 mg hordenine, three healthy volunteers, mean, read-out: t1/2 (terminal half-life)) was 0.9 h and the “Cl/F (apparent plasma clearance)” value ([7]; single oral dose 100 mg hordenine, three healthy volunteers, mean) was 4700 ± 1700 L/h and 4700 L/h. The “pKa of the strongest bases” value [8] was 9.19.
